Reference: PubChem BioAssay AID256 (DTP/NCI, 2004)
Several values for one entry are separate records, joined by “and”; a condition that tells them apart may be missing. Equal entries are not always repeated. Toxic doses and inconclusive results are not listed. How the source made its calls: active means survival T/C of 150% or more; inactive means T/C below 125% in these data.

Tested on: CD2F1 mice, L1210 leukemia ip, survival T/C
Assay: NCI In Vivo Anticancer Drug Screen. Data for tumor model L1210 Leukemia (intraperitoneal) in CD2F1 (CDF1) mice
Conditions: higher = longer survival
Outline: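 In this screen, transplantable tumors were grown in mice given either the compound or its vehicle. Results were expressed as the treated measurement relative to the control measurement.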

[1] = endpoint: mean survival time, dose: 100.0 mg/kg/injection, schedule: Q01DX009 (ip), vehicle: saline with Tween-80
[2] = endpoint: mean survival time, dose: 100.0 mg/kg/injection, schedule: Q04DX003 (ip), vehicle: saline with Tween-80
[3] = endpoint: mean survival time, dose: 200.0 mg/kg/injection, schedule: Q01DX009 (ip), vehicle: saline with Tween-80
[4] = endpoint: mean survival time, dose: 400.0 mg/kg/injection, schedule: Q04DX003 (ip), vehicle: saline with Tween-80
[5] = endpoint: mean survival time, dose: 100.0 mg/kg/injection, schedule: Q04DX003 (ip), vehicle: saline
[6] = endpoint: mean survival time, dose: 200.0 mg/kg/injection, schedule: Q04DX003 (ip), vehicle: saline
[7] = endpoint: mean survival time, dose: 75.0 mg/kg/injection, schedule: Q01DX001 (ip), vehicle: saline
[8] = endpoint: mean survival time, dose: 150.0 mg/kg/injection, schedule: Q01DX001 (ip), vehicle: saline
[9] = endpoint: mean survival time, dose: 100.0 mg/kg/injection, schedule: Q01DX001 (ip), vehicle: saline with Tween-80
[10] = endpoint: mean survival time, dose: 200.0 mg/kg/injection, schedule: Q01DX001 (ip), vehicle: saline with Tween-80
[11] = endpoint: mean survival time, dose: 400.0 mg/kg/injection, schedule: Q01DX001 (ip), vehicle: saline with Tween-80
[12] = endpoint: mean survival time, dose: 400.0 mg/kg/injection, schedule: Q01DX009 (ip), vehicle: saline with Tween-80
[13] = endpoint: mean survival time, dose: 200.0 mg/kg/injection, schedule: Q04DX003 (ip), vehicle: saline with Tween-80
[14] = endpoint: mean survival time, dose: 100.0 mg/kg/injection, schedule: Q01DX001 (ip), vehicle: saline
[15] = endpoint: mean survival time, dose: 200.0 mg/kg/injection, schedule: Q01DX001 (ip), vehicle: saline
[16] = endpoint: mean survival time, dose: 400.0 mg/kg/injection, schedule: Q01DX001 (ip), vehicle: saline
[17] = endpoint: mean survival time, dose: 100.0 mg/kg/injection, schedule: Q04DX002 (ip), vehicle: saline with Tween-80
[18] = endpoint: mean survival time, dose: 200.0 mg/kg/injection, schedule: Q04DX002 (ip), vehicle: saline with Tween-80
[19] = endpoint: mean survival time, dose: 400.0 mg/kg/injection, schedule: Q04DX002 (ip), vehicle: saline with Tween-80
[20] = endpoint: mean survival time, dose: 50.0 mg/kg/injection, schedule: Q01DX009 (ip), vehicle: saline with Tween-80

Measured: T/C

CCCCCCCCP(=O)(N1CC1C)N1CC1C (centres undefined)
inactive: endpoint: mean survival time, dose: 6.25 mg/kg/injection, schedule: Q01DX009 (ip), vehicle: saline 98 % of control | endpoint: mean survival time, dose: 12.5 mg/kg/injection, schedule: Q01DX009 (ip), vehicle: saline 94 % of control | endpoint: mean survival time, dose: 25.0 mg/kg/injection, schedule: Q01DX009 (ip), vehicle: saline 96 % of control | endpoint: mean survival time, dose: 50.0 mg/kg/injection, schedule: Q01DX009 (ip), vehicle: saline 102 % of control

O=Cc1ccc(N=Nc2c(S(=O)(=O)O)cc3cc(S(=O)(=O)O)cc(O)c3c2O)cc1
inactive: [1] 100 % of control | [2] 96 % of control | [3] 88 % of control | [4] 88 % of control

COc1nc(NC2OC(CO)C(O)C(O)C2O)c(Br)c(=O)[nH]1 (centres undefined)
inactive: endpoint: median survival time, dose: 12.5 mg/kg/injection, schedule: Q01DX005 (ip), vehicle: saline 100 % of control | endpoint: median survival time, dose: 25.0 mg/kg/injection, schedule: Q01DX005 (ip), vehicle: saline 101 % of control | endpoint: median survival time, dose: 50.0 mg/kg/injection, schedule: Q01DX005 (ip), vehicle: saline 102 % of control | endpoint: median survival time, dose: 100.0 mg/kg/injection, schedule: Q01DX005 (ip), vehicle: saline 101 % of control | endpoint: median survival time, dose: 200.0 mg/kg/injection, schedule: Q01DX005 (ip), vehicle: saline 101 % of control

C[N+]12CCN(CC1)CC2.[Cl][Pt]([Cl])[Cl]
inactive: endpoint: mean survival time, dose: 12.5 mg/kg/injection, schedule: Q04DX003 (ip), vehicle: saline 101 % of control | endpoint: mean survival time, dose: 25.0 mg/kg/injection, schedule: Q04DX003 (ip), vehicle: saline 98 % of control | endpoint: mean survival time, dose: 50.0 mg/kg/injection, schedule: Q04DX003 (ip), vehicle: saline 106 % of control | [5] 113 % of control | [6] 104 % of control

CCCCCCCCCCCCNCCC(=O)O
inactive: [7] 93 % of control | [8] 93 % of control

O=P(O)(O)OCC(O)CF (centres undefined)
inactive: endpoint: mean survival time, dose: 87.5 mg/kg/injection, schedule: Q04DX003 (ip), vehicle: saline 118 % of control

CCN(CC)Cc1cc(Nc2ncnc3oc(C)c(C)c23)ccc1O
inactive: [9] 100 % of control | [1] 102 % of control | [10] 95 % of control | [3] 96 % of control | [11] 95 % of control | [12] 100 % of control

C=C1CC(C)(Cn2cnc3c(N)ncnc32)OC1=O (centres undefined)
inactive: endpoint: median survival time, dose: 6.13 mg/kg/injection, schedule: Q01DX005 (ip), vehicle: water 104 % of control | endpoint: median survival time, dose: 12.25 mg/kg/injection, schedule: Q01DX005 (ip), vehicle: water 101 % of control | endpoint: median survival time, dose: 24.5 mg/kg/injection, schedule: Q01DX005 (ip), vehicle: water 103 % of control | endpoint: median survival time, dose: 49.0 mg/kg/injection, schedule: Q01DX005 (ip), vehicle: water 101 % of control

CC(=O)/C(=N/O)c1ccccc1
inactive: endpoint: mean survival time, dose: 75.0 mg/kg/injection, schedule: Q01DX009 (ip), vehicle: saline with Tween-80 102 % of control | [2] 102 % of control | endpoint: mean survival time, dose: 150.0 mg/kg/injection, schedule: Q01DX009 (ip), vehicle: saline with Tween-80 94 % of control | [13] 102 % of control | [4] 94 % of control

CCNC1=CC(=O)CC(C)(C)C1
inactive: [7] 106 % of control | [8] 101 % of control | endpoint: mean survival time, dose: 300.0 mg/kg/injection, schedule: Q01DX001 (ip), vehicle: saline 109 % of control

CCCCC(CCC)OC(=O)Nc1cccc2ccccc12 (centres undefined)
inactive: [9] 93 % of control | [10] 93 % of control | [11] 93 % of control

C=CCNC(C)=O
inactive: [14] 103 % of control | [15] 97 % of control | [16] 103 % of control

COC(=O)C1C(C(=O)OC)C2(C)C(=O)C1(C)C(c1ccccc1)=C2c1ccccc1 (centres undefined)
inactive: [17] 101 % of control | [18] 90 % of control | [19] 90 % of control

COC1(c2ccccc2)CN(Cc2ccccc2)CCO1 (centres undefined)
inactive: [2] 103 % of control | [13] 100 % of control | [4] 106 % of control

O=C(c1ccccc1)C1CC2(c3ccccc3)C(=O)C1(c1ccccc1)c1c2c2ccccc2c2ccccc12 (centres undefined)
inactive: endpoint: mean survival time, dose: 50.0 mg/kg/injection, schedule: Q01DX001 (ip), vehicle: saline with Tween-80 90 % of control | [9] 86 % of control and 94 % of control | [11] 89 % of control

Cc1ccc(S(=O)(=O)N(C)c2ccc(I)cc2F)cc1
inactive: [1] 104 % of control | [3] 95 % of control | [12] 101 % of control

S=C(NC1CCCCC1)N1CCC(CCCC2CCN(C(=S)NC3CCCCC3)CC2)CC1
inactive: [2] 87 % of control | [13] 94 % of control | [4] 102 % of control

CC1C(=O)OC(C)(C)C1(C)C (centres undefined)
inactive: endpoint: mean survival time, dose: 25.0 mg/kg/injection, schedule: Q01DX009 (ip), vehicle: saline with Tween-80 98 % of control | [20] 98 % of control | [2] 104 % of control

C/C(Cl)=C\CNc1ncnc2c1ncn2C1OC(CO)C(O)C1O (centres undefined)
inactive: endpoint: mean survival time, dose: 6.25 mg/kg/injection, schedule: Q01DX005 (ip), vehicle: distilled water + Tween-80 103 % of control | endpoint: mean survival time, dose: 12.5 mg/kg/injection, schedule: Q01DX005 (ip), vehicle: distilled water + Tween-80 101 % of control | endpoint: mean survival time, dose: 25.0 mg/kg/injection, schedule: Q01DX005 (ip), vehicle: distilled water + Tween-80 91 % of control | endpoint: mean survival time, dose: 50.0 mg/kg/injection, schedule: Q01DX005 (ip), vehicle: distilled water + Tween-80 100 % of control | endpoint: mean survival time, dose: 100.0 mg/kg/injection, schedule: Q01DX005 (ip), vehicle: distilled water + Tween-80 101 % of control

O=C(/C=C/c1ccccc1)Nc1ccccc1Cl
inactive: [17] 105 % of control | [18] 98 % of control | [19] 98 % of control

O=C(O)C(Br)C(Br)C(=O)O (centres undefined)
inactive: endpoint: mean survival time, dose: 50.0 mg/kg/injection, schedule: Q01DX001 (ip), vehicle: carboxymethylcellulose (CMC) 98 % of control | endpoint: mean survival time, dose: 100.0 mg/kg/injection, schedule: Q01DX001 (ip), vehicle: carboxymethylcellulose (CMC) 93 % of control | endpoint: mean survival time, dose: 200.0 mg/kg/injection, schedule: Q01DX001 (ip), vehicle: carboxymethylcellulose (CMC) 95 % of control

CC(C)c1ccc2c(c1)CC[C@H]1[C@](C)(CN=C(N)CCl)CCC[C@]21C
inactive: [17] 102 % of control | [18] 95 % of control

CCCCCc1ccc(C#N)cc1
inactive: endpoint: mean survival time, dose: 50.0 mg/kg/injection, schedule: Q01DX001 (ip), vehicle: saline 100 % of control | [14] 97 % of control | [15] 89 % of control | [16] 93 % of control

CC(C)CC(=O)c1ccccc1O
inactive: [14] 100 % of control | [15] 97 % of control | [16] 96 % of control

Cc1ccc(S(=O)(=O)/C=C(/SC#N)C2CCCCC2)cc1
inactive: [1] 96 % of control | [3] 100 % of control | [12] 102 % of control

COc1cc(NC(=O)Nc2ccccc2C)c(OC)cc1Cl
inactive: [17] 90 % of control | [18] 90 % of control | [19] 86 % of control

S=c1[nH]c2cc(Cl)c(Cl)cc2[nH]1
inactive: [14] 100 % of control | [15] 100 % of control | [16] 102 % of control

O=P(Oc1ccccc1)(Oc1ccccc1)C(Nc1ccccc1)c1ccncc1 (centres undefined)
inactive: [2] 93 % of control | [13] 100 % of control | [4] 102 % of control

CCSC(=N)N
inactive: [5] 94 % of control | [6] 91 % of control | endpoint: mean survival time, dose: 400.0 mg/kg/injection, schedule: Q04DX003 (ip), vehicle: saline 97 % of control

COc1ccccc1NC(=S)N(C)C
inactive: [20] 98 % of control | [1] 101 % of control | [3] 98 % of control

CCCCCCCCCCCCCC(=O)[O][Sn]([CH2]CCC)([CH2]CCC)[O]C(=O)CCCCCCCCCCCCC
inactive: endpoint: mean survival time, dose: 0.78 mg/kg/injection, schedule: Q01DX009 (ip), vehicle: other 97 % of control | endpoint: mean survival time, dose: 1.56 mg/kg/injection, schedule: Q01DX009 (ip), vehicle: other 100 % of control | endpoint: mean survival time, dose: 3.13 mg/kg/injection, schedule: Q01DX009 (ip), vehicle: other 112 % of control

C(=C\CN(Cc1ccccc1)Cc1ccccc1)/CN(Cc1ccccc1)Cc1ccccc1
inactive: endpoint: mean survival time, dose: 100.0 mg/kg/injection, schedule: Q01DX009 (ip), vehicle: Klucel (hydroxypropylcellulose) (HPC) 95 % of control | endpoint: mean survival time, dose: 200.0 mg/kg/injection, schedule: Q01DX009 (ip), vehicle: Klucel (hydroxypropylcellulose) (HPC) 97 % of control

O=C(O)c1cccc(Cl)n1
inactive: [1] 97 % of control | [3] 97 % of control | [12] 88 % of control
